Article PMC7465040, “Cytotoxic and Anti-Plasmodial Activities of Stephania dielsiana Y.C. Wu Extracts and the Isolated Compounds” (Molecules, 2020)
Like-named read-outs stand apart in the source and are kept apart here.

How the values were obtained:
[1] = tested on: chloroquine-resistant W2 P. falciparum strain; assay: In vitro anti-plasmodial assay (HRP2 ELISA), W2; type: cell-based, Plasmodium falciparum; conditions: for IC50: read-out: IC50 (μM ± SD) W2; for SI W2 184B5 / SI W2 MCF10A: Table 3; for SI W2 184B5: selectivity index between 184B5 and parasites W2; for SI W2 MCF10A: selectivity index between MCF10A and parasites W2
Description: (§1) Parasites were grown in A-positive human blood (Etablissement Français du Sang, Marseille, France) under controlled atmospheric conditions that consisted of 10% O2, 5% CO2, and 85% N2 at 37 °C with a humidity of 95%.
(§2) In vitro anti-plasmodial assay: The two P. falciparum strains 3D7 and W2 were synchronized twice with sorbitol before use. The clonality of these strains was verified both in our laboratory and in an independent laboratory from the Worldwide Anti-malarial Resistance Network (WWARN) by PCR genotyping of the polymorphic genetic markers msp1 and msp2 and microsatellite loci. The compounds were re-suspended in methanol or DMSO 5% (v/v) and then diluted in methanol to obtain final concentrations ranging from 0.008 to 500 μg/mL (final concentration of 0.5% of methanol or DMSO). […] The plates were incubated for 72 h at 37 °C in controlled atmospheric conditions 5% CO2, 10% O2, and […]. After thawing the plates, haemolysed cultures were homogenized by vortexing the plates. Both the success of the drug susceptibility assay and the appropriate volume of haemolysed culture to use for each assay were determined for each clinical isolate during a preliminary HRP2 ELISA. Both the pre-test and subsequent ELISA assays were performed using a commercial kit (Malaria Ag Celisa, ref KM2159, Cellabs PTY LTD, Brookvale, Australia) according to the manufacturer’s recommendation. The optical density (OD) of each sample was measured with a spectrophotometer (Safire 2, Tecan, Lyon, France). […] The anti-plasmodial in vitro assay was performed five times for each product. The IC50 values represented the mean value calculated from five experiments. According to Hout, a selectivity index (SI) was based on the ratio between anti-parasitic and cytotoxic activities. In the case of our study, a SI was calculated between non-tumorigenic cell line 184B5 and parasites 3D7 or W2 and/or MCF10A and these two parasites.

[2] = tested on: HeLa; assay: SRB cell proliferation assay, HeLa; type: cell-based, human; conditions: for IC50: Homo sapiens, HeLa, 72 h, read-out: IC50 (μM ± SD) HeLa; for Selectivity index (SI) 184B5 versus HeLa / Selectivity index (SI) MCF10A versus HeLa: Table 2B; for Selectivity index (SI) 184B5 versus HeLa: non-cancer 184B5 vs cancer HeLa; for Selectivity index (SI) MCF10A versus HeLa: non-cancer MCF10A vs cancer HeLa
Description: (§3) In vitro anticancer study: The in vitro anti-proliferative tests were carried out as described previously, using aliquots of the cell lines used therein. Briefly, HeLa, MDA-MB-231 and MDA-MB-468, MCF7, and 184B5 and MCF 10A cell lines were purchased from ATCC. The identity of the cell lines presented in this study were verified by short tandem repeat profiling by Genetica DNA Laboratories (www.celllineauthentication.com) (April 8, 2015). MCF10A was grown in DMEM F12 medium supplemented with 0.02 μg/mL epidermal growth factor, 10% FBS, 10 μg/mL insulin and […] hydrocortisone. MDA-MB-468 were grown in DMEM supplemented with 10% FBS and antibiotics cocktail (100 μg/mL streptomycin, 100 units/mL penicillin and 250 ng/mL amphotericin B). SRB cell proliferation assays were carried out as previously described, with some minor modifications. The concentration range for all tested cell lines were from 100–0.39 μg/mL for extracts and 100–0.39 μM for pure compounds. […] All experiments were carried out at least twice.

[3] = tested on: 184B5; assay: SRB cell proliferation assay, 184B5 non-cancer cells; type: cell-based, human; conditions: Homo sapiens
Description: as §3

[4] = tested on: MDA-MB-231; assay: SRB cell proliferation assay, MDA-MB-231; type: cell-based, human; conditions: for IC50: Homo sapiens, read-out: IC50 (μM ± SD) MDA-MB-231; for Selectivity index (SI) 184B5 versus MDA-MB-231 / Selectivity index (SI) MCF10A versus MDA-MB-231: Table 2B; for Selectivity index (SI) 184B5 versus MDA-MB-231: non-cancer 184B5 vs cancer MDA-MB-231; for Selectivity index (SI) MCF10A versus MDA-MB-231: non-cancer MCF10A vs cancer MDA-MB-231
Description: as §3

[5] = tested on: MCF 10A; assay: SRB cell proliferation assay, MCF10A non-cancer cells; type: cell-based; conditions: Homo sapiens, read-out: IC50 (μM ± SD) MCF 10A
Description: as §3

[6] = tested on: MDA-MB-468; assay: SRB cell proliferation assay, MDA-MB-468; type: cell-based, human; conditions: for IC50: Homo sapiens, read-out: IC50 (μM ± SD) MDA-MB-468; for Selectivity index (SI) 184B5 versus MDA-MB-468 / Selectivity index (SI) MCF10A versus MDA-MB-468: Table 2B; for Selectivity index (SI) 184B5 versus MDA-MB-468: non-cancer 184B5 vs cancer MDA-MB-468; for Selectivity index (SI) MCF10A versus MDA-MB-468: non-cancer MCF10A vs cancer MDA-MB-468
Description: as §3

[7] = tested on: MCF7; assay: SRB cell proliferation assay, MCF7; type: cell-based, human; conditions: for IC50: Homo sapiens, read-out: IC50 (μM ± SD) MCF7; for Selectivity index (SI) 184B5 versus MCF7 / Selectivity index (SI) MCF10A versus MCF7: Table 2B; for Selectivity index (SI) 184B5 versus MCF7: non-cancer 184B5 vs cancer MCF7; for Selectivity index (SI) MCF10A versus MCF7: non-cancer MCF10A vs cancer MCF7
Description: as §3

[8] = tested on: chloroquine-susceptible 3D7 P. falciparum strain; assay: In vitro anti-plasmodial assay (HRP2 ELISA), 3D7; type: cell-based, Plasmodium falciparum; conditions: for IC50: read-out: IC50 (μM ± SD) 3D7; for SI 3D7 184B5 / SI 3D7 MCF10A: Table 3; for SI 3D7 184B5: selectivity index between 184B5 and parasites 3D7; for SI 3D7 MCF10A: selectivity index between MCF10A and parasites 3D7
Description: as §1, §2

[9] = tested on: Plasmodium falciparum 3D7 and W2 strains; assay: In vitro anti-plasmodial assay, both strains; type: cell-based
Description: as §1, §2

[10] = tested on: HeLa, MDA-MB231, MDA-MB-468, MCF7, 184B5 and MCF10A cell lines; assay: SRB cell proliferation assay, whole panel of cell lines; type: cell-based, human
Description: as §3

[11] = Plasmodium falciparum, W2, 72 h
[12] = 184B5, 72 h, read-out: IC50 (μM ± SD) 184B5
[13] = 184B5, read-out: IC50 (μM ± SD) 184B5
[14] = Plasmodium falciparum, 3D7, 72 h
[15] = 72 h, HRP2 ELISA, mean of five experiments
[16] = Plasmodium falciparum, W2, 72 h, 72 h, HRP2 ELISA, mean of five experiments
[17] = 184B5, Table 2A, SRB, 72 h, read-out: IC50 (μM ± SD) 184B5
[18] = 184B5, Table 3, non-cancer cell line, read-out: IC50 (μM ± SD) 184B5
[19] = MDA-MB-231, Table 2A, SRB, 72 h
[20] = MDA-MB-468, Table 2A, SRB, 72 h
[21] = Plasmodium falciparum, 3D7, 72 h, 72 h, HRP2 ELISA, mean of five experiments

SMILES	IC50 [1, 11] [µM]	IC50 [2] [µM]	IC50 [3, 12] [µM]	IC50 [3, 13] [µM]	IC50 ([4]; MDA-MB-231, 72 h) [µM]	IC50 ([5]; 72 h) [µM]	IC50 [5] [µM]	IC50 ([6]; MDA-MB-468, 72 h) [µM]	IC50 ([7]; MCF7, 72 h) [µM]	IC50 [8, 14] [µM]	IC50 [1, 16] [µM]	SI W2 184B5 [1]	SI W2 MCF10A [1]	IC50 ([2]; Table 2A, SRB) [µM]	Selectivity index (SI) 184B5 versus HeLa [2]	Selectivity index (SI) MCF10A versus HeLa [2]	IC50 [3, 17] [µM]	IC50 [3, 18] [µM]	IC50 [4, 19] [µM]	Selectivity index (SI) 184B5 versus MDA-MB-231 [4]	other results
CCN(CC)CCCC(C)Nc1ccnc2cc(Cl)ccc12 (stereo not drawn) [Chloroquine, reference compound]	0.38 ± 0.03	29.8 ± 0.7	> 50	> 50	28.9 ± 0.4	40.5 ± 9.8	40.5 ± 9.8	33.2 ± 0.4	> 50	0.021 ± 0.005	–	–	–	–	–	–	–	–	–	–	–
COc1cccc2c1C(=O)c1c3c-2c2c(cc3cc[n+]1C)OCO2 [Thailandine 2, thailandine]	–	–	–	–	–	–	–	–	–	–	0.24	13.73	22.77	4.1 ± 0.4	0.73	1.20	3.02 ± 0.1	3.02 ± 0.1	7.11 ± 0.07	0.42	SI against P. falciparum (W2 vs. MCF10A) [1]: 22.8 fold; IC50 [1, 15]: 0.22 ± 0.02 µM; Selectivity index (SI) MCF10A versus MDA-MB-231 [4]: 0.70; IC50 ([5]; Table 2A, SRB, 72 h): 5.01 ± 0.15 µM; IC50 ([5]; Table 3, non-cancer cell line): 5.01 ± 0.15 µM; IC50 [6, 20]: 0.78 ± 0.12 µM; Selectivity index (SI) 184B5 versus MDA-MB-468 [6]: 3.90; Selectivity index (SI) MCF10A versus MDA-MB-468 [6]: 6.40; IC50 ([7]; MCF7, Table 2A, SRB, 72 h): 1.99 ± 1.36 µM; Selectivity index (SI) 184B5 versus MCF7 [7]: 1.50; Selectivity index (SI) MCF10A versus MCF7 [7]: 2.50; SI against P. falciparum (3D7 vs. 184B5) [8]: 12.6 fold; IC50 [8, 15]: 0.24 ± 0.04 µM; IC50 [8, 21]: 0.22 µM; SI 3D7 184B5 [8]: 12.58; SI 3D7 MCF10A [8]: 20.86; Anti-plasmodial activity against both 3D7 and W2 (in words) [9]: strong activity; Selectivity index (SI) between cells and parasites ([9]; 184B5, MCF10A vs 3D7, W2): > 12; IC50 ([10]; Homo sapiens, cancer and non-cancer cell lines, read-out: IC50 values, range over the cell lines examined): 0.78 to 7.11 µM
COc1cc2c(cc1OC)-c1cc3ccc(OC)c(OC)c3c[n+]1CC2 [Palmatine chloride 6, palmatine]	–	–	–	–	–	–	–	–	–	–	3.19 ± 0.64	>15.67	>15.67	> 100	–	–	> 50	> 50	> 50	–	IC50 ([5]; Table 2A, SRB, 72 h): > 50 µM; IC50 ([5]; Table 3, non-cancer cell line): > 50 µM; IC50 [6, 20]: > 50 µM; IC50 ([7]; MCF7, Table 2A, SRB, 72 h): > 50 µM; IC50 [8, 21]: 1.25 ± 0.28 µM; Selective index SI on 3D7 strain ([8]; vs 184B5 and MCF10A): > 20; Anti-plasmodial activity against both 3D7 and W2 (in words) [9]: strong activity; Anti-proliferative activity (in words) [10]: did not show any effect
COc1cccc2c1C[C@@H]1c3c(cc4c(c3-2)OCO4)CCN1C [Stephanine 3, stephanine]	1.32 ± 0.38	3.33 ± 0.23	6.25 ± 0.14	6.25 ± 0.14	5.66 ± 0.16	7.19 ± 0.33	7.19 ± 0.33	7.14 ± 2.11	6.49 ± 0.43	0.69 ± 0.15	–	4.73	5.45	–	1.88	2.16	–	–	–	1.10	Anti-plasmodial activity on W2 (in words) [1]: not effective; Selectivity index (SI) MCF10A versus MDA-MB-231 [4]: 1.27; Selectivity index (SI) 184B5 versus MDA-MB-468 [6]: 0.88; Selectivity index (SI) MCF10A versus MDA-MB-468 [6]: 1.01; Selectivity index (SI) 184B5 versus MCF7 [7]: 0.96; Selectivity index (SI) MCF10A versus MCF7 [7]: 1.11; Anti-plasmodial activity on 3D7 (in words) [8]: very effective; SI 3D7 184B5 [8]: 9.06; SI 3D7 MCF10A [8]: 10.42
